Here are results for five molecules from patent US8642265B2, “Compositions and methods for the detection of topoisomerase II complexes with DNA” (The Children's Hospital of Philadelphia, priority 2004, dated 2014).

Each structure is given as a SMILES string.

The target in assay [1] is DNA topoisomerase II cleavage complexes in CEM cells (Homo sapiens, UniProt P11388). Nature of the assay: Modified ICE (in vivo complex of enzyme) bioassay in CEM cells. The settings on record: 20 μM, 2 hours.
The target of assay [2] is human DNA topoisomerase IIα (Homo sapiens, UniProt P11388). Nature of the assay: DNA topoisomerase II in vitro cleavage assay. The settings on record: for cleavage at MLL bcr position 6588 over cleavage without drug (enzyme-only): drug at 20 μM, 10 min 37° C.
Assay [3] addresses T1, DNA topoisomerase II cleavage complexes in K562 cells (Homo sapiens, UniProt P11388).
T1 construct: endogenous in cells; host or cells: K562 cells
Nature of the assay: Modified ICE bioassay in K562 cells. It is filed as cell-based. The settings on record: for induction of DNA topoisomerase II cleavage complexes: 20 μM. How it is done: (§1) After flash-freezing and thawing at 37° C., the DNA was sheared by passage through a 251/2 G needle. […] The pellet was dissolved in 200 μl of 10 mM Tris-HCl (pH 8.0) 1 mM EDTA buffer, the DNA was quantified and 5.6 μg of DNA was analyzed on a Western blot with a mouse anti-human DNA topoisomerase IIα antibody (DAKO, Glostrup, Denmark) to detect DNA topoisomerase IIα-bound DNA (11).
(§2) However, doxorubicin is an intercalative DNA topoisomerase II poison that induces DNA topoisomerase II cleavage with different sequence site-selectivity (Capranico et al., 1990) and that also is associated with leukemia as a treatment complication, albeit less often (Sandoval et al., 1993).

The target of assay [4] is T2, DNA topoisomerase II covalent complexes in KG1 cells (Homo sapiens, UniProt P11388).
T2 construct: endogenous in cells; host or cells: KG1 (KG-1) cells
Nature of the assay: Modified ICE bioassay in KG1 cells. The format is cell-based. The settings on record: doxorubicin at 100 μM. How it is done: The assays were performed on CEM cells (FIG. 7A), K562 cells (FIGS. 7B and 7C), and KG-1 cells (FIG. 7D).
as §1, §2

For assay [5], the target named is T3, DNA topoisomerase II covalent complexes in ex vivo expanded CD34+ cells (Homo sapiens, UniProt P11388).
T3 construct: endogenous in cells; host or cells: primary human bone marrow CD34+ cells, expanded ex vivo
Nature of the assay: Modified ICE bioassay in ex vivo expanded CD34+ cells. It is filed as cell-based. The settings on record: 2 hours, etoposide 100 μM. As to the method:
as §1

For assay [6], the system named is ex vivo expanded CD34+ cells. Nature of the assay: Cell viability by Trypan Blue exclusion. The format is cell-based, human. The settings on record: etoposide 2 hours, same for untreated. As to the method: as §1
Cell viability assessed by Trypan blue exclusion was ˜70% for both conditions. As predicted in proliferating cells (6), native DNA topoisomerase II covalent complexes were detected in the untreated cells. […] The DNA topoisomerase IIα protein ran higher than its known molecular weight of 170 kDa, which is consistent with the presence of DNA bound to the enzyme.

In assay [7] the target is T4, DNA topoisomerase II cleavage complexes with the MLL bcr in CD34+ cells (Homo sapiens, UniProt P11388).
T4 construct: endogenous in cells; host or cells: primary human bone marrow CD34+ cells, expanded ex vivo
Nature of the assay: MLL bcr oligonucleotide microarray (XEOCHIP) of DNA topoisomerase II-bound DNA. It is filed as cell-based. The settings on record: 100 μM, Q-Q plot. From the text:
Employing XEOCHIP™ technology (Xeotron, Houston, Tex.), a first generation MLL bcr oligonucleotide array containing replicate slots of each of 162 probes was created. The 162 probes included 73 probes for the non-repetitive MLL bcr sequences, 8 probes for the Alu region between nucleotide positions 663-1779 in the MLL bcr, 57 probes for MLL exon 25 which is unaffected by the translocations, and 24 probes for 9 bacterial control genes (see Tables 2 and 3; Tables 4 and 5 provide another example of a series of oligonucleotides that can be employed in a microarray). The 8.3 kb MLL bcr is represented by replicates of each of the 73 50 mers at average intervals of 115 bases to span the bcr. Because it has been well documented in the literature that the printing, general hybridization conditions, and scanning of microarrays introduce systemic effects that are related to the position on the chip, replicates of each of the probes in the array have been spaced throughout the chip.
Primary CD34+ selected human bone marrow cells were obtained through the NHLBI or purchased commercially. The cells were expanded ex vivo using conditions optimized to promote minimal differentiation in order to increase cell numbers as required to generate a useful model system.
DOP of the immunoaffinity-purified DNA topoisomerase II cleavage complexes from the treated and untreated cells was performed exactly as was done with the reference sample. […] Dye-swap experiments were also performed.
GeneSpring (Silicon Genetics, Redwood City, Calif.) was employed as a computational tool to visualize and analyze the data from MLL bcr XEOCHIPS™ with either treated or untreated samples in one channel and the reference sample in the other.
DOP-amplified DNA from the DNA topoisomerase II cleavage complexes in treated or untreated cells on separate chips was labeled with ALEXA FLUOR® 546. The MLL bcr reference sample was labeled with ALEXA FLUOR® 647. The null hypothesis represented by the straight line is that there is no effect at any probe, whereas upward departure points are potential hotspots and downward departure points are potential coldspots.

In assay [8] the target is T5, DNA topoisomerase II covalent complexes with MLL and other sequences in CD34+ cells (Homo sapiens, UniProt P11388).
T5 construct: endogenous in cells; host or cells: primary human bone marrow CD34+ cells, expanded ex vivo
Nature of the assay: Immunoaffinity purification, DOP amplification and real-time PCR of DNA topoisomerase IIα-bound DNA. The format is cell-based.

The mark [9] stands for this setting: 20 μM, additional 10 min at 75° C.

Sequence of human DNA topoisomerase IIα (P11388 whole entry): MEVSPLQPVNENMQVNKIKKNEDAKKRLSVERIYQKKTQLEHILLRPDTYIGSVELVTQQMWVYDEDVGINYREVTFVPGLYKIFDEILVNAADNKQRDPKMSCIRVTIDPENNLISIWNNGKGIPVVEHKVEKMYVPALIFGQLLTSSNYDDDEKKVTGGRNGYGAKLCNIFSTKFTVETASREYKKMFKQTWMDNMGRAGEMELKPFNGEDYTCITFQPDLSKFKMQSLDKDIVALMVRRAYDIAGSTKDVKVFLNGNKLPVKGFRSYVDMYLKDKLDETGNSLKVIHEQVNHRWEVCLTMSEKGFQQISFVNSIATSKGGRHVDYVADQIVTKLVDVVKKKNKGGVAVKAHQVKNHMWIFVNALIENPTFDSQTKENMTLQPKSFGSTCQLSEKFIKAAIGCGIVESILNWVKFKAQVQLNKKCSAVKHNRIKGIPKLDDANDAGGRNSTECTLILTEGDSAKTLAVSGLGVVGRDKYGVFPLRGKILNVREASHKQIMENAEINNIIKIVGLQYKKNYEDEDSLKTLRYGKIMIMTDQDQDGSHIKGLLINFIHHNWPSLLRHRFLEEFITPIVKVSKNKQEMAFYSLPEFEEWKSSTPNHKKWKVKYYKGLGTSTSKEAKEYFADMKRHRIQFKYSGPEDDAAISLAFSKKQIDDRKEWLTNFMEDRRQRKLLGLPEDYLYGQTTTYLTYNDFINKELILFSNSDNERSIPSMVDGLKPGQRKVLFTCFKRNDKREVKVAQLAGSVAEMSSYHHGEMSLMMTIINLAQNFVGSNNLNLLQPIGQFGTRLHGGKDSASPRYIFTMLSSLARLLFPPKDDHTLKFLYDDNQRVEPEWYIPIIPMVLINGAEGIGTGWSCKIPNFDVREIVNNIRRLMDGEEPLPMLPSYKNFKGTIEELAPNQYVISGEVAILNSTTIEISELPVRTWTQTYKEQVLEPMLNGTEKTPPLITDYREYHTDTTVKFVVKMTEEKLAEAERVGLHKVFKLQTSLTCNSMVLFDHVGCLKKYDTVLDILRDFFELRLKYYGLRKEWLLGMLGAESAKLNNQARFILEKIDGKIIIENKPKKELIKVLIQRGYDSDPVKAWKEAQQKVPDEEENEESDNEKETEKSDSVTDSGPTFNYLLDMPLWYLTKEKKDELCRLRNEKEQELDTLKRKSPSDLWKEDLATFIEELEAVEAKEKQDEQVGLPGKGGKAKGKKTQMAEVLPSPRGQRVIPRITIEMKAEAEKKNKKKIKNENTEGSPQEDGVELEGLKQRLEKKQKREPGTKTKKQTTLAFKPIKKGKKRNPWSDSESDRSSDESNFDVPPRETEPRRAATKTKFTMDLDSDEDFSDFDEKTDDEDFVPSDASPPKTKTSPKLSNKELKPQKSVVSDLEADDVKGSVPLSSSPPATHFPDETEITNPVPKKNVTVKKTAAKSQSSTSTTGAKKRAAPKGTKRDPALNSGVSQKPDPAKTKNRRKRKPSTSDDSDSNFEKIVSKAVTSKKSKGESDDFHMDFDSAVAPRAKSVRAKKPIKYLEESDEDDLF
T1 sequence (P11388 whole entry, one chain of several): as the sequence (P11388 whole entry) above
T4 sequence (P11388 whole entry, one chain of several): as the sequence (P11388 whole entry) above
Sequence of DNA topoisomerase II cleavage complexes in CEM cells (P11388 whole entry, one chain of several): as the sequence (P11388 whole entry) above
T2 sequence (P11388 whole entry, one chain of several): as the sequence (P11388 whole entry) above
T3 sequence (P11388 whole entry, one chain of several): as the sequence (P11388 whole entry) above
T5 sequence (P11388 whole entry, one chain of several): as the sequence (P11388 whole entry) above

For `COc1cccc2c1C(=O)c1c(O)c3c(c(O)c1C2=O)C[C@@](O)(C(=O)CO)C[C@@H]3O[C@H]1C[C@H](N)[C@H](O)[C@H](C)O1` [doxorubicin], the “induction of DNA topoisomerase II cleavage complexes” value in assay [1] is reported as “no induction”. The “cleavage over enzyme-only cleavage at MLL bcr positions 4675 and 4673 and GAS7 position 1238” value in assay [2] (0.01 μM) is reported as “quantifiably enhanced cleavage”. The “effect on cleavage at MLL bcr position 6588 over a range of concentrations” value in assay [2] (0.01 μM to 0.5 μM) was “dose-dependent increases over enzyme-only cleavage”. The “cleavage at MLL 4675, 4673 and GAS7 1238 at high concentration” value in assay [2] (20 μM) is reported as “complete diminution”. Also, in assay [2] (20 μM or lower concentrations, AF-4 intron 3 substrate), the “cleavage at AF-4 intron 3 position 7126” value is recorded as “no detectable cleavage”. For the same molecule, in assay [2] (AF-4 intron 3 substrate), the “concentration at which cleavage at AF-4 positions 7111, 7114 and 7119 began to decrease” value came to 0.5 µM; the “effect on cleavage at AF-4 intron 3 positions 7111, 7114 and 7119 over a range of concentrations” value is “dose-dependent increases in cleavage stimulation over enzyme-only cleavage”. In assay [2] (MLL and GAS7 substrates), the “concentration at which cleavage enhancement at MLL 4675, 4673 and GAS7 1238 began to decrease” value stood at 0.1 µM. In assay [2] (MLL intron 8 substrate), the “concentration at which cleavage enhancement at MLL bcr position 6588 began to decrease” value is 2.5 µM and the “cleavage at MLL bcr position 6588 over cleavage without drug (enzyme-only)” value amounted to 0.4 fold. For the same molecule, the “effect on cleavage at MLL bcr positions 6587 and 6589” value in assay [2] (all concentrations tested) is “only catalytic inhibition”. Also, the “induction of DNA topoisomerase II cleavage complexes” value in assay [3] is listed as “no induction”. In addition, the “induction of DNA topoisomerase II covalent complexes” value in assay [4] is on record as “induced DNA II covalent complexes”.

Turning to `COc1cc([C@@H]2c3cc4c(cc3[C@@H](O[C@@H]3O[C@@H]5CO[C@@H](C)O[C@H]5[C@H](O)[C@H]3O)[C@H]3COC(=O)[C@H]23)OCO4)cc(O)c1O` [etoposide catechol], in assay [1], the “amount of cleavage complexes induced compared with etoposide” value is given as “comparable in amount to the parent drug” and the “induction of DNA topoisomerase II cleavage complexes” value was “significant induction”. In assay [2] (20 μM, AF-4 intron 3 substrate), the “cleavage at AF-4 intron 3 position 7126 relative to the strongest enzyme-only cleavage in the substrate (position 7114)” value was found to be 5.9 fold and the “rank in relative intensity of cleavage at AF-4 position 7126 among all cleavage sites” value is “first”. In addition, the “cleavage at MLL bcr position 6588 over cleavage without drug (enzyme-only)” value in assay [2] (MLL intron 8 substrate) came to 4.4 fold. In addition, in assay [5], the “formation of DNA topoisomerase II covalent complexes versus untreated cells” value is on record as “increased formation of topoisomerase-DNA cleavage complexes”.

As for `COC1=CC(C2c3cc4c(cc3C(O[C@@H]3O[C@@H]5COC(C)O[C@H]5[C@H](O)[C@H]3O)C3COC(=O)C23)OCO4)=CC(=O)C1=O` (stereo partly drawn) [etoposide quinone], the “induction of DNA topoisomerase II cleavage complexes” value in assay [1] was “significant induction”. Further, in assay [2] (20 μM, AF-4 intron 3 substrate), the “cleavage at AF-4 intron 3 position 7126 relative to the strongest enzyme-only cleavage in the substrate (position 7114)” value was 3.4 fold and the “rank in relative intensity of cleavage at AF-4 position 7126 among all cleavage sites” value is recorded as 5th. Moreover, the “rank of cleavage at MLL bcr position 6588 among cleavage sites in the substrate” value in assay [2] (20 μM, MLL intron 8 substrate) stood at 3rd. The “cleavage at MLL bcr position 6588 over cleavage without drug (enzyme-only)” value in assay [2] (MLL intron 8 substrate) is 9.8 fold. Besides, the “induction of DNA topoisomerase II cleavage complexes” value in assay [3] is “Induction of DNA cleavage complexes was also observed”. For the same molecule, the “concentration dependence of induction of DNA topoisomerase II cleavage complexes” value in assay [3] (2 hours) was “concentration dependent increase”.

Consider `COc1cc([C@@H]2c3cc4c(cc3[C@@H](O[C@@H]3O[C@@H]5CO[C@@H](C)O[C@H]5[C@H](O)[C@H]3O)[C@H]3COC(=O)[C@H]23)OCO4)cc(OC)c1O` [etoposide], for which the “induction of DNA topoisomerase II cleavage complexes” value in assay [1] is “significant induction”. In assay [2] (setting [9]), the “heat stability of cleavage at AF-4 intron 3 position 7126” value is recorded as “especially heat-stable” and the “heat stability of cleavage complexes at MLL bcr position 6588” value is given as “remained detectable after heating”. Moreover, in assay [2] (MLL intron 8 substrate), the “cleavage at MLL bcr position 6588 over cleavage without drug (enzyme-only)” value was 7.9 fold. The “formation of DNA topoisomerase II covalent complexes versus untreated cells” value in assay [5] is listed as “increased formation of DNA topoisomerase II covalent complexes”. The “cell viability assessed by Trypan blue exclusion” value in assay [6] is about 70%. For the same molecule, the “induction of DNA topoisomerase II cleavage complexes” value in assay [3] is listed as “Induction of DNA cleavage complexes was also observed”. Further, in assay [4], the “induction of DNA topoisomerase II covalent complexes” value was “induced DNA II covalent complexes”. Also, in assay [7], the “potential coldspots for DNA topoisomerase II cleavage complexes (array probes), treated vs untreated” value was “probes 2-28, 1-30, 1-18, and 1-15”; the “potential hotspots for DNA topoisomerase II cleavage complexes (array probes), treated vs untreated” value is “probes 1-41 and 1-51”.

Regarding `O=c1c(-c2ccc(O)cc2)coc2cc(O)cc(O)c12` [genistein], in assay [7], the “potential coldspots for DNA topoisomerase II cleavage complexes (array probes), treated vs untreated” value was “probes 1-31 (SEQ ID NO: 27), 2-50 (SEQ ID NO: 162), 1-74 (SEQ ID NO: 62), 2-28 (SEQ ID NO: 34), 1-10 (SEQ ID NO: 83), and 1-22 (SEQ ID NO: 71)”; the “potential hotspots for DNA topoisomerase II cleavage complexes (array probes), treated vs untreated” value is “Probes 1-68 (SEQ ID NO: 157), 1-41 (SEQ ID NO: 49), 1-51 (SEQ ID NO: 141), and 1-33 (SEQ ID NO: 132)”. Moreover, the “real-time PCR products, MLL intron 7-exon 8 amplicon” value in assay [8] was “real-time PCR products that were detected”.
